Results as given in publication PMC8277899, “A novel RyR1-selective inhibitor prevents and rescues sudden death in mouse models of malignant hyperthermia and heat stroke” (Nature Communications, 2021).
Values joined by “and” are separate entries in the source; they are usually repeats but may differ in a detail not shown here. Equal entries are not always repeated.

Legend:
RyR1 channel = system: RyR1 channel; set-up: method as in PMID 31299492; details: HEK293 cell-based assay; read-out: IC50 for inhibiting the RyR1 channel; cited from earlier work
G2435R FDB fibers = test: Mn2+ quench assay in FDB fibers from G2435R mice; type: cell-based, mouse; details: 10 µM
Experimental: WT and mutant mice (R2509C, 8- to 20-week old; R163C, 12- to 16-week old, and G2435R, 12- to 16-week old) were euthanized and flexor digitorum brevis (FDB) muscles were dissected and incubated with 2 mg/mL collagenase (Worthington Biochemical Co., NJ, USA) in the HEPES-Krebs solution containing 2 mg/mL bovine serum albumin for 2–3 h at 37 °C. Following incubation, single cells were separated by gentle trituration in collagenase-free HEPES-Krebs solution. Isolated single FDB cells were seeded on a laminin-coated cover slip of the 35 mm glass-bottom dish or on 96 well plate coated with Cultrex basement membrane matrix (Trevigen, Minneapolis, USA).
Assays were carried out as follows[38]: 5 µM of fura2-AM dye (Thermo Fisher Scientific) dissolved in mammalian Ringer solution (133 mM NaCl, 5 mM KCl, 1 mM MgSO4, 25 mM HEPES, 5.5 mM glucose, 2 mM CaCl2, pH 7.4) was loaded into dissociated WT and homozygous G2435R FDB fibers in 96 well plates for 30 min at 37 °C, 5% CO2. […] Fura-2 was illuminated at its isosbestic wavelength (360 nm) with the X-Cite 120 metal halide light source (Exfo, Ontario, Canada) and fluorescence emission at 510 nm was recorded using a 10 ×0.3na objective. […] The fluorescence signals were plotted as fluorescence arbitrary units (f.a.u.) over time. […]

[1] = Metabolic stability in human liver microsomes; type: in vitro ADME; details: 0.5 μM, NADPH
Experimental: Cpd1 (final concentration was 0.5 μM) was incubated with human or mouse hepatic microsomes (XenoTech Ltd, Kansas City, KS) with nicotinamide adenine dinucleotide phosphate (NADPH) for 10 and 60 min at 37 °C. Each reaction was stopped by acetonitrile, and the value of unchanged compound 1 was determined by quantitating using LC–MS/MS, and the metabolic stability was evaluated as a remaining rate (%).

In the case of CCCCCCCCn1cc(C(=O)O)c(=O)c2cc3c(cc21)OCO3 [Cpd1, 6,7-(methylenedioxy)-1-octyl-4-quinolone-3-carboxylic acid], the IC50 (RyR1 channel) is given as 0.012 µM, the “Mn2+ quench rate” value (G2435R FDB fibers) is given as “the same as that in untreated WT fibers” and the “remaining rate (residual Cpd1, 0 min = 100%)” value ([1]; 10 min) is given as 69% and 68% and 65% and 66%. The “remaining rate (residual Cpd1, 0 min = 100%)” value ([1]; 60 min) was 25% and 26% and 23%.
